{"source": "ChEMBL document CHEMBL1137160", "about": "“Structure-activity relationships of methylene or terminal side chain modified retinoids on the differentiation and cell death signaling in NB4 promyelocytic leukemia cells” (2004)", "key": {"NB-4 [1]": {"tested_on": "NB-4", "assay": "Evaluated for mean value of the fluorescence intensity of CD11c-PE expressing NB4 cells at day 3", "format": "functional, Homo sapiens"}, "NB-4 [2]": {"tested_on": "NB-4", "assay": "Evaluated for mean value of the fluorescence intensity of CD11c-PE expressing NB4 cells at day 6", "format": "functional, Homo sapiens"}, "NB-4 [3]": {"tested_on": "NB-4", "assay": "Ability to induce maturation and cell death of NB4 cells labelled with V-FITC on day 3", "format": "functional, Homo sapiens", "parameters": "concentration or dose not given beside the values"}, "NB-4 [4]": {"tested_on": "NB-4", "assay": "Ability to induce maturation and cell death of NB4 cells labelled with V-FITC on day 6", "format": "functional, Homo sapiens", "parameters": "concentration or dose not given beside the values"}, "[5]": {"target": "T1, Retinoic acid receptor RXR-beta (Homo sapiens) (UniProt P28702)", "T1 sequence (whole entry)": "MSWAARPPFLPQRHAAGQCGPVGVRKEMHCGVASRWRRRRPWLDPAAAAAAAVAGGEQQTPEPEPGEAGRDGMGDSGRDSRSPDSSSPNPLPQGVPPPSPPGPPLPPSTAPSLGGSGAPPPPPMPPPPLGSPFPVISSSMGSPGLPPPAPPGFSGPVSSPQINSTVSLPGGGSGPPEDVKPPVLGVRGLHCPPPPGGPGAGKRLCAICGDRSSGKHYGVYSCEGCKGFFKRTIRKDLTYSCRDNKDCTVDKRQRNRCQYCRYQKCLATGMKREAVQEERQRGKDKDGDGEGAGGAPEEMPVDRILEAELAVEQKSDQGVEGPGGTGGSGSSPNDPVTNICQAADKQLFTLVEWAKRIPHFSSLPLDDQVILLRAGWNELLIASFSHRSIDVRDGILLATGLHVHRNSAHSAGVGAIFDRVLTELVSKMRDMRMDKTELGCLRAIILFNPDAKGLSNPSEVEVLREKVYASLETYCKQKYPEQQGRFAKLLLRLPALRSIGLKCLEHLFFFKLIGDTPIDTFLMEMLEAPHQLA", "assay": "Agonist activity for Retinoid X receptor beta as photons in presence and absence of ligand", "format": "functional", "parameters": "unit not given here"}, "[6]": {"target": "T2, Retinoic acid receptor alpha (Homo sapiens) (UniProt P10276)", "T2 sequence (whole entry)": "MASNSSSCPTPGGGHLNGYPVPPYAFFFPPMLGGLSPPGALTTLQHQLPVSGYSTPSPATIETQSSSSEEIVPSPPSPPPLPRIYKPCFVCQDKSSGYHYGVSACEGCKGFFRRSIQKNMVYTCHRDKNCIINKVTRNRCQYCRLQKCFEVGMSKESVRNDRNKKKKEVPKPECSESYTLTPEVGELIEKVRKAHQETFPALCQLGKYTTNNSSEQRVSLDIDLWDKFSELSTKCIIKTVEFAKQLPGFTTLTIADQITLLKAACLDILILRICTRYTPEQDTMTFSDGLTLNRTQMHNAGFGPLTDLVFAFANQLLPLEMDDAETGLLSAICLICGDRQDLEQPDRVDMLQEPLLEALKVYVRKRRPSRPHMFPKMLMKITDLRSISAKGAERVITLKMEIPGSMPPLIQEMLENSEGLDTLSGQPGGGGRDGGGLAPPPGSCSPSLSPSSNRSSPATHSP", "assay": "Agonist activity for Retinoic acid receptor alpha as photons in presence and absence of ligand", "format": "functional", "parameters": "unit not given here"}, "[7]": {"target": "T3, Retinoic acid receptor gamma (Homo sapiens) (UniProt P13631)", "T3 sequence (whole entry)": "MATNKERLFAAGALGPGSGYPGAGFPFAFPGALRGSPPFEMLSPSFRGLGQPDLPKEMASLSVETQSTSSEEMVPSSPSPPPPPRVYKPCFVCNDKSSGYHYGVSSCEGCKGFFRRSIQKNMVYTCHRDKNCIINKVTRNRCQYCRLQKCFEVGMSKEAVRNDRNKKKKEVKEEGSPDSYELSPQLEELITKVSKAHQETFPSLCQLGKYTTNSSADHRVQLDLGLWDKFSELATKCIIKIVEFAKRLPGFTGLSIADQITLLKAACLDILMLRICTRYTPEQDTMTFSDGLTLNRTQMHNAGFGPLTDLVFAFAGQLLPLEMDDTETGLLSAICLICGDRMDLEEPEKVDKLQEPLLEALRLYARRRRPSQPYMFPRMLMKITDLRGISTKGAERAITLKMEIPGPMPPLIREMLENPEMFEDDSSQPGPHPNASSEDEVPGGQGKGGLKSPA", "assay": "Agonist activity for Retinoic acid receptor gamma as photons in presence and absence of ligand", "format": "functional", "parameters": "concentration or dose not given beside the values"}, "[8]": {"target": "T4, Retinoic acid receptor beta (Homo sapiens) (UniProt P10826)", "T4 sequence (whole entry)": "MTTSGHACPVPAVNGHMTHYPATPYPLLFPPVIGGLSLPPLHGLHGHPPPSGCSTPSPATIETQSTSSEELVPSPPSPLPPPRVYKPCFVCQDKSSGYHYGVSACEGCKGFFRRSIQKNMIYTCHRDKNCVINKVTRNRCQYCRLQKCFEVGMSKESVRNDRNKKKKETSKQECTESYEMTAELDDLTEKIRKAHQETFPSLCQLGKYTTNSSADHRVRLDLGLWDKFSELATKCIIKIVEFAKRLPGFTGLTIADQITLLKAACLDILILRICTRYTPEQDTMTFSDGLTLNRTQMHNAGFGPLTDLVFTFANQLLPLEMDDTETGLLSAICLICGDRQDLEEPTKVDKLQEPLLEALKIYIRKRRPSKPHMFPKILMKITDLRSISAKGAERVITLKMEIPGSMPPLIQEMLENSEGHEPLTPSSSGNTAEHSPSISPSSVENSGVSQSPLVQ", "assay": "Agonist activity for Retinoic acid receptor beta as photons in presence and absence of ligand", "format": "functional", "parameters": "unit not given here"}}}
{"smiles": "C/C(=C\\c1ccc(C(=O)O)cc1)c1ccc2c(c1)C(C)(C)CCC2(C)C", "values": [{"measurement": "Activity", "setting": "NB-4 [1]", "result": 106}, {"measurement": "Activity", "setting": "NB-4 [2]", "result": 170}, {"measurement": "Activity", "setting": "NB-4 [3]", "result": 14, "unit": "%"}, {"measurement": "Activity", "setting": "NB-4 [4]", "result": 35, "unit": "%"}]}
{"smiles": "C=C(/C=C/C1=C(C)CCCC1(C)C)C/C=C/C=C\\C(=O)O", "values": [{"measurement": "Activity", "setting": "NB-4 [1]", "result": 33}, {"measurement": "Activity", "setting": "NB-4 [2]", "result": 35}, {"measurement": "Activity", "setting": "[5]", "result": 2}, {"measurement": "Activity", "setting": "NB-4 [3]", "result": 10, "unit": "%"}, {"measurement": "Activity", "setting": "NB-4 [4]", "result": 12, "unit": "%"}, {"measurement": "Activity", "setting": "[6]", "result": 7.1}, {"measurement": "Activity", "setting": "[7]", "result": 7.9}, {"measurement": "Activity", "setting": "[8]", "result": 13.1}]}
{"smiles": "CC1=C(/C=C/C(C)=C/C=C(\\C#N)C(C)=C(C(=O)O)C(=O)O)C(C)(C)CCC1", "values": [{"measurement": "Activity", "setting": "NB-4 [1]", "result": 77}, {"measurement": "Activity", "setting": "NB-4 [2]", "result": 64}, {"measurement": "Activity", "setting": "[5]", "result": 3}, {"measurement": "Activity", "setting": "NB-4 [3]", "result": 11, "unit": "%"}, {"measurement": "Activity", "setting": "NB-4 [4]", "result": 12, "unit": "%"}, {"measurement": "Activity", "setting": "[6]", "result": 22.2}, {"measurement": "Activity", "setting": "[7]", "result": 11.7}, {"measurement": "Activity", "setting": "[8]", "result": 17.9}]}
{"smiles": "C=C(/C=C/C1=C(C)CCCC1(C)C)C/C=C/C(C)=C/C(=O)O", "values": [{"measurement": "Activity", "setting": "NB-4 [1]", "result": 117}, {"measurement": "Activity", "setting": "NB-4 [2]", "result": 163}, {"measurement": "Activity", "setting": "[5]", "result": 5.8}, {"measurement": "Activity", "setting": "NB-4 [3]", "result": 18, "unit": "%"}, {"measurement": "Activity", "setting": "NB-4 [4]", "result": 56, "unit": "%"}, {"measurement": "Activity", "setting": "[6]", "result": 7}, {"measurement": "Activity", "setting": "[7]", "result": 3.3}, {"measurement": "Activity", "setting": "[8]", "result": 7.2}]}
{"smiles": "C=C(/C=C/c1ccccc1)C/C=C/C(C)=C\\C(=O)O", "values": [{"measurement": "Activity", "setting": "NB-4 [1]", "result": 15}, {"measurement": "Activity", "setting": "NB-4 [2]", "result": 12}, {"measurement": "Activity", "setting": "[5]", "result": 13.5}, {"measurement": "Activity", "setting": "NB-4 [3]", "result": 9, "unit": "%"}, {"measurement": "Activity", "setting": "NB-4 [4]", "result": 8, "unit": "%"}, {"measurement": "Activity", "setting": "[6]", "result": 4.9}, {"measurement": "Activity", "setting": "[7]", "result": 4.6}, {"measurement": "Activity", "setting": "[8]", "result": 4}]}
{"smiles": "COC(=O)\\C=C(C)/C(C#N)=C/C=C(C)/C=C/C1=C(C)CCCC1(C)C", "values": [{"measurement": "Activity", "setting": "NB-4 [1]", "result": 10}, {"measurement": "Activity", "setting": "NB-4 [2]", "result": 10}, {"measurement": "Activity", "setting": "[5]", "result": 1.6}, {"measurement": "Activity", "setting": "NB-4 [3]", "result": 13, "unit": "%"}, {"measurement": "Activity", "setting": "NB-4 [4]", "result": 8, "unit": "%"}, {"measurement": "Activity", "setting": "[6]", "result": 1.3}, {"measurement": "Activity", "setting": "[7]", "result": 3}, {"measurement": "Activity", "setting": "[8]", "result": 6.7}]}
{"smiles": "CC1(C)CCC(C)(C)c2cc(C3(c4ccc(C(=O)O)cc4)OCCO3)ccc21", "values": [{"measurement": "Activity", "setting": "NB-4 [1]", "result": 22}, {"measurement": "Activity", "setting": "NB-4 [2]", "result": 23}, {"measurement": "Activity", "setting": "NB-4 [3]", "result": 11, "unit": "%"}, {"measurement": "Activity", "setting": "NB-4 [4]", "result": 11, "unit": "%"}]}
{"smiles": "C=C(/C=C/C1=C(C)CCCC1(C)C)C/C=C/C(C)=C\\C(=O)O", "values": [{"measurement": "Activity", "setting": "NB-4 [1]", "result": 38}, {"measurement": "Activity", "setting": "NB-4 [2]", "result": 43}, {"measurement": "Activity", "setting": "[5]", "result": 2.1}, {"measurement": "Activity", "setting": "NB-4 [3]", "result": 11, "unit": "%"}, {"measurement": "Activity", "setting": "NB-4 [4]", "result": 14, "unit": "%"}, {"measurement": "Activity", "setting": "[6]", "result": 11.8}, {"measurement": "Activity", "setting": "[7]", "result": 10.9}, {"measurement": "Activity", "setting": "[8]", "result": 14.5}]}
{"smiles": "CC1=C(/C=C/C(C)=C\\C=C\\C(C)=C\\C(=O)O)C(C)(C)CCC1", "values": [{"measurement": "Activity", "setting": "[5]", "result": 14.5}]}
{"smiles": "CC1=C(/C=C/C(C)=C/C=C/C(C)=C/C(=O)O)C(C)(C)CCC1", "note": "[TRETINOIN]", "values": [{"measurement": "Activity", "setting": "NB-4 [1]", "result": 110}, {"measurement": "Activity", "setting": "NB-4 [2]", "result": 197}, {"measurement": "Activity", "setting": "NB-4 [3]", "result": 14, "unit": "%"}, {"measurement": "Activity", "setting": "NB-4 [4]", "result": 50, "unit": "%"}]}
{"smiles": "CC1=C(/C=C/C(C)=C/C=C(C#N)/C(C)=C\\C(=O)O)C(C)(C)CCC1", "values": [{"measurement": "Activity", "setting": "NB-4 [1]", "result": 88}, {"measurement": "Activity", "setting": "NB-4 [2]", "result": 126}, {"measurement": "Activity", "setting": "[5]", "result": 2.1}, {"measurement": "Activity", "setting": "NB-4 [3]", "result": 9, "unit": "%"}, {"measurement": "Activity", "setting": "NB-4 [4]", "result": 20, "unit": "%"}, {"measurement": "Activity", "setting": "[6]", "result": 23.5}, {"measurement": "Activity", "setting": "[7]", "result": 8.9}, {"measurement": "Activity", "setting": "[8]", "result": 14.6}]}
